Test results from paper PMC12362783 (Advanced Science, 2025).

Assays:
ATR = molecular target: T1, ATR (Homo sapiens, UniProt Q13535); assay: ATR kinase inhibition, Mobility Shift Assay; type: biochemical; conditions: n = 3, mean ± SD
T1 construct: purchased Eurofins 14-953
Description: The in vitro ATR kinase inhibitory activities were determined by ChemPartner Co., Ltd. (Shanghai, China) using the Mobility Shift Assay. The tested compound was dissolved with DMSO and diluted to 1000/3 × of the final desired highest inhibitor concentration in the reaction. […] The assay wells were incubated at 28 °C for 4 h.

PARP1 = PARP1 (Homo sapiens, UniProt P09874); assay: PARP enzymatic inhibition ELISA (PARP1); type: biochemical; conditions: for IC50: n = 3, mean ± SD
Chain of PARP1 (P09874 whole entry): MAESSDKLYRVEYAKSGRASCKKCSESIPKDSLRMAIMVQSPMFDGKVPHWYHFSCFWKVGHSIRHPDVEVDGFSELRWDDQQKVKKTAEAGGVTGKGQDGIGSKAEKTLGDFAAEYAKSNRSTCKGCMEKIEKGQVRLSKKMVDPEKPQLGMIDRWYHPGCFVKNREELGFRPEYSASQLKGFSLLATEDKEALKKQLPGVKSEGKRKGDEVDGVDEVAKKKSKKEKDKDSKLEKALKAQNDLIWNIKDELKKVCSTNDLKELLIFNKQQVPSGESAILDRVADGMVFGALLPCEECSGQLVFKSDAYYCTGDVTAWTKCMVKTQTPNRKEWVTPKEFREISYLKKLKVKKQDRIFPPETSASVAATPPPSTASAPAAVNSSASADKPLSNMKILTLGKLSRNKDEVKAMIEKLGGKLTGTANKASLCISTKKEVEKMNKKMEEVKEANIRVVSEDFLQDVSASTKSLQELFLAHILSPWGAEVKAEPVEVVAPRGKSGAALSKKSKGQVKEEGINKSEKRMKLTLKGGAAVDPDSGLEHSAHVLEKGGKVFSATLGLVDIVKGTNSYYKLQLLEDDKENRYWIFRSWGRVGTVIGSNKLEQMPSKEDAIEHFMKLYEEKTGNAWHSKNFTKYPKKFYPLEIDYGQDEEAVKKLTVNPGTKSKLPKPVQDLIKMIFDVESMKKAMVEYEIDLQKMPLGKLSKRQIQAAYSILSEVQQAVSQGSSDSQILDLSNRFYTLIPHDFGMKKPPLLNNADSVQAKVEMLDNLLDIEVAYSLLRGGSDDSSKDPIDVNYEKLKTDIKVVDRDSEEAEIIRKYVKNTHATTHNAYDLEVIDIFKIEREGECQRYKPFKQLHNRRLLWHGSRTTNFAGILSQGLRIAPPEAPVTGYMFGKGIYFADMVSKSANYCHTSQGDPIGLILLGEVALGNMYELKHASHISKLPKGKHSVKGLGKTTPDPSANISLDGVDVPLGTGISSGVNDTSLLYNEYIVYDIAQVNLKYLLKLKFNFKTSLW
Description: The PARP activity assay was performed by ChemPartner (Shanghai, China). Each well was precoated with histone (final conc.: 100 ng mL^−1) diluted in PBS buffer (contains 10 mmol L^−1 NaH2PO4 and 150 mmol L^−1 NaCl, pH 7.4) by incubation at 4 °C overnight. […] The reaction was initiated by the addition of 10 µL of PARP (final conc.: 0.007 nM/well) at room temperature for 60 min. Add 20 µL of anti‐Poly/Mono‐ADP Ribose Rabbit mAb. Incubate for 1.5 h at room temperature and wash the plate three times using PBST buffer. […] Incubate for 1 h at room temperature and wash the plate three times using PBST buffer. Add 25 µL Femto‐ECL Substrate A and Femto‐ECL Substrate B (1:1) mix. Immediately read chemiluminescence on Envision (Revvity, USA).

MDA‐MB‐231 = assay: Cell growth inhibition, CellTiter‐Glo (CTG); type: cell-based; conditions: Homo sapiens, MDA-MB-231, 120 h, read-out: IC50 MDA‐MB‐231; CTG, 5 days, n = 3
Description: (§1) All cells were grown in a humidified incubator at 37 °C and 5% CO2.
(§2) […] […] Relative viability was calculated by normalizing the raw luminescence counts of the treated groups to those of the DMSO control groups. IC₅₀ values were calculated using sigmoidal dose‐response curve fitting with GraphPad Prism 9.0 software.

MDA‐MB‐468 = assay: Cell growth inhibition, CellTiter‐Glo (CTG); type: cell-based; conditions: Homo sapiens, MDA-MB-468, 120 h; CTG, 5 days, n = 3
Description: as §1, §2

T1 sequence (Q13535 whole entry): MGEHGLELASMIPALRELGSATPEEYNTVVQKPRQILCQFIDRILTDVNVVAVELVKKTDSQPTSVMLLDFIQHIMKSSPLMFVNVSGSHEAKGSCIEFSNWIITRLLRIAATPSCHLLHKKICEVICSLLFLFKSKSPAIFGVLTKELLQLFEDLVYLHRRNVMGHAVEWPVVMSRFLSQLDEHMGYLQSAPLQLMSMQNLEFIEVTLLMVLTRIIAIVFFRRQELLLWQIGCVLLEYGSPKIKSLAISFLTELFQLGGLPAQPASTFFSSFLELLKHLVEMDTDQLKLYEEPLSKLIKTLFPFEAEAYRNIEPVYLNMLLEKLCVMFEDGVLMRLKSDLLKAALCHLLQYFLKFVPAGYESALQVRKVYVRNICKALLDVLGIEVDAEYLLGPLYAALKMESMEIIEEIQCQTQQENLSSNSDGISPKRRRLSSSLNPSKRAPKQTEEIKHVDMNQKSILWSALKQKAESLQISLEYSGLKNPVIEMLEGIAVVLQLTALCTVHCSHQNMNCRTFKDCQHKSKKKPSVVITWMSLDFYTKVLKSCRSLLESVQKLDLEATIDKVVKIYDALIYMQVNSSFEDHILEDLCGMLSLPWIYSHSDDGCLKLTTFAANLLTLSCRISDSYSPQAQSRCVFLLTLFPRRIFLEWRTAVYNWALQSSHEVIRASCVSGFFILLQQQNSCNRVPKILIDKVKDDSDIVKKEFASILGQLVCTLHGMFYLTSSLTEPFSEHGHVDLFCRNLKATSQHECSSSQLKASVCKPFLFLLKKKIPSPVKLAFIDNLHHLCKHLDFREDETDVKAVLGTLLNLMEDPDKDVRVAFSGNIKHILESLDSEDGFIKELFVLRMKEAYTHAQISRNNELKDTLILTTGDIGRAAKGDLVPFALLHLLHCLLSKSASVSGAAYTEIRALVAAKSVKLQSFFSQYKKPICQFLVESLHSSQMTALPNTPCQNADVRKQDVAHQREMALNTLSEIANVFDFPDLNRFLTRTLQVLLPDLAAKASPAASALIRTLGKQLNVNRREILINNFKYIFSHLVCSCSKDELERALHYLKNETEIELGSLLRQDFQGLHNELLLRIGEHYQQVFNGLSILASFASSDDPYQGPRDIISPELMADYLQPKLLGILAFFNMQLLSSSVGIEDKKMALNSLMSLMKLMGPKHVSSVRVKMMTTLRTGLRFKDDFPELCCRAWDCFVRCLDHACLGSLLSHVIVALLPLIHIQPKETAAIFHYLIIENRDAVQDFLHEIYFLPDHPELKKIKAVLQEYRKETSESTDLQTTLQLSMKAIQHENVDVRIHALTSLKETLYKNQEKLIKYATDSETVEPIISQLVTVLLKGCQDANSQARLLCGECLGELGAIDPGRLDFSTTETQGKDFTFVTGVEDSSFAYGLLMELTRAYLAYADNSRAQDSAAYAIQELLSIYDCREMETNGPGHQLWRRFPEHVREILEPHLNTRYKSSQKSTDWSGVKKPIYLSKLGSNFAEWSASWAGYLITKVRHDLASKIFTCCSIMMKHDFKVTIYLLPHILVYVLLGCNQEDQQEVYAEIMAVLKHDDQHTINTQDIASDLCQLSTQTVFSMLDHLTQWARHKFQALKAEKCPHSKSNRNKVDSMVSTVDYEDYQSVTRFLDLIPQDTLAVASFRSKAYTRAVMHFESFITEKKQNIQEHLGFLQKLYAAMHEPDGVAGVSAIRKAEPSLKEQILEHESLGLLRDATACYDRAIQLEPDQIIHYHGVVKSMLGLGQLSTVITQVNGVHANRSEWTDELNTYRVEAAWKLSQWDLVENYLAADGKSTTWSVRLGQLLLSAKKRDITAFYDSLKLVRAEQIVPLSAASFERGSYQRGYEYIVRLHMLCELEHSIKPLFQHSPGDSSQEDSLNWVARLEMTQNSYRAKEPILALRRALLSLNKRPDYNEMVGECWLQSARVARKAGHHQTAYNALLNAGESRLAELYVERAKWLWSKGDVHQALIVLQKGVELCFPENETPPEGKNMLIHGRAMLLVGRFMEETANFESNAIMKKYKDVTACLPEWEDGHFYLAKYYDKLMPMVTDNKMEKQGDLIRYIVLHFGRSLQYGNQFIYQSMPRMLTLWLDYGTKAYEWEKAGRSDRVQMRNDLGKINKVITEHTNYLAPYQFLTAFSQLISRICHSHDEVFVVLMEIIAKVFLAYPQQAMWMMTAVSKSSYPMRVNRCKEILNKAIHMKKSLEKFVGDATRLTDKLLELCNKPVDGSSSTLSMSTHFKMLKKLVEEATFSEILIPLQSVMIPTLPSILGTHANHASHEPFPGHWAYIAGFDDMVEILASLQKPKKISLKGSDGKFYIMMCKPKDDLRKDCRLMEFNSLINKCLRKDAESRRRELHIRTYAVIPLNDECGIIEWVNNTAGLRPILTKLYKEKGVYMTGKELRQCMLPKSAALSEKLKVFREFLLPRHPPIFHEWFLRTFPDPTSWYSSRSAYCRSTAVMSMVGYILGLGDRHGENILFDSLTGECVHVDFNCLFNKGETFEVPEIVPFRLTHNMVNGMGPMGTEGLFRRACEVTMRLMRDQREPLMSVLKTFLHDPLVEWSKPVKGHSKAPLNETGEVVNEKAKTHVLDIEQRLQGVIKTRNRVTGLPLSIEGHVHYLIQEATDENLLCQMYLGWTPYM
T1 sequence (Q8WXE1 whole entry partner): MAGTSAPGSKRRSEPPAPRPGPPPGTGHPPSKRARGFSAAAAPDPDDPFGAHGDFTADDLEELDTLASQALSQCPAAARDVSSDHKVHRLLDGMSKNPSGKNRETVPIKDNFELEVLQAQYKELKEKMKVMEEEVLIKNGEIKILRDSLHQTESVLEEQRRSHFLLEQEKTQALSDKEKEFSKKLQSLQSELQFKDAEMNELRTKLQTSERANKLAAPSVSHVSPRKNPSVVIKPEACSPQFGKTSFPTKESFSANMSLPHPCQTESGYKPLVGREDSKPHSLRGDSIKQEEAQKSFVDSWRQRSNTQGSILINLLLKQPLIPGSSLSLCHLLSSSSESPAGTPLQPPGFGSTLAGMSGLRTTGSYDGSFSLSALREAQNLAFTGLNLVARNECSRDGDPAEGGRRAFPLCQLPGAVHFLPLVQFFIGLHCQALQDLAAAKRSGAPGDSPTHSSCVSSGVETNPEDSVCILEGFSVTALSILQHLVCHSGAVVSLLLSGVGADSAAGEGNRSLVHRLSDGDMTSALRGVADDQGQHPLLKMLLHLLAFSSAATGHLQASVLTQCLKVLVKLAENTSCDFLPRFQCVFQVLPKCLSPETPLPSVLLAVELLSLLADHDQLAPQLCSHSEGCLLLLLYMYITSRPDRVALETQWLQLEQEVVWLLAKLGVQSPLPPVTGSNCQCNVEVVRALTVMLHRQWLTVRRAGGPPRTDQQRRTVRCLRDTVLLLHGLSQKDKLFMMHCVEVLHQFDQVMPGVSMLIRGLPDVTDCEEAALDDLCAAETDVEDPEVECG

SMILES	IC50 (ATR) [nM]	IC50 (PARP1) [nM]	IC50 (MDA‐MB‐231) [nM]	IC50 (MDA‐MB‐468) [nM]	inhibition at 0.02 µM (PARP1; @ 20 nM, read-out: PARP1 inhibitory rate at certain concentration) [%]
C[C@@H]1COCCN1c1cc(C2(NC(=O)c3ccc(CN4CCN(C(=O)c5cc(Cc6n[nH]c(=O)c7ccccc67)ccc5F)CC4)cc3)CC2)nc(-c2ccnc3[nH]ccc23)n1 [Compound A10, (R)‐4‐((4‐(2‐fluoro‐5‐((4‐oxo‐3,4‐dihydrophthalazin‐1‐yl)methyl)benzoyl)piperazin‐1‐yl)methyl)‐N‐(1‐(6‐(3‐methylmorpholino)‐2‐(1H‐pyrrolo[2,3‐b]pyridin‐4‐yl)pyrimidin‐4‐yl)cyclopropyl)benzamide]	185 ± 16.3	19.3 ± 2.9	> 50000	> 50000	–
C[C@@H]1COCCN1c1cc(CNC(=O)c2ccc(C(=O)N3CCN(C(=O)c4cc(Cc5n[nH]c(=O)c6ccccc56)ccc4F)CC3)nc2)nc(-c2ccnc3[nH]ccc23)n1 [Compound B10, (R)‐6‐(4‐(2‐fluoro‐5‐((4‐oxo‐3,4‐dihydrophthalazin‐1‐yl)methyl)benzoyl)piperazine‐1‐carbonyl)‐N‐((6‐(3‐methylmorpholino)‐2‐(1H‐pyrrolo[2,3‐b]pyridin‐4‐yl)pyrimidin‐4‐yl)methyl) nicotinamide]	19 ± 1.2	0.61 ± 0.15	> 50000	1700 ± 350	–
C[C@@H]1COCCN1c1cc(CNC(=O)c2cnc(N3CCN(C(=O)c4cc(Cc5n[nH]c(=O)c6ccccc56)ccc4F)CC3)nc2)nc(-c2ccnc3[nH]ccc23)n1 [Compound B14, (R)‐2‐(4‐(2‐fluoro‐5‐((4‐oxo‐3,4‐dihydrophthalazin‐1‐yl)methyl)benzoyl)piperazin‐1‐yl)‐N‐((6‐(3‐methylmorpholino)‐2‐(1H‐pyrrolo[2,3‐b]pyridin‐4‐yl)pyrimidin‐4‐yl)methyl)pyramidine‐5‐carboxamide]	23 ± 2.1	1.2 ± 0.4	> 50000	90 ± 10	–
C[C@@H]1COCCN1c1cc(CNC(=O)c2ccc(N3CCN(C(=O)c4cc(Cc5n[nH]c(=O)c6ccccc56)ccc4F)CC3)cc2)nc(-c2ccnc3[nH]ccc23)n1 [Compound B13, (R)‐4‐(4‐(2‐fluoro‐5‐((4‐oxo‐3,4‐dihydrophthalazin‐1‐yl)methyl)benzoyl)piperazin‐1‐yl)‐N‐((6‐(3‐methylmorpholino)‐2‐(1H‐pyrrolo[2,3‐b]pyridin‐4‐yl)pyrimidin‐4‐yl)methyl)benzamide]	22 ± 1.7	1.3 ± 0.6	> 50000	990 ± 60	–
C[C@@H]1COCCN1c1cc(C2(NC(=O)CCCNC(=O)c3cc(Cc4n[nH]c(=O)c5ccccc45)ccc3F)CC2)nc(-c2ccnc3[nH]ccc23)n1 [Compound A4, (R)‐2‐fluoro‐N‐(4‐((1‐(6‐(3‐methylmorpholino)‐2‐(1H‐pyrrolo[2,3‐b]pyridin‐4‐yl)pyrimidin‐4‐yl)cyclopropyl)amino)‐4‐oxobutyl)‐5‐((4‐oxo‐3,4‐dihydrophthalazin‐1‐yl)methyl)benzamide]	> 500	3.4	> 50000	3080 ± 80	–
C[C@@H]1COCCN1c1cc(C2(NC(=O)CNC(=O)c3cc(Cc4n[nH]c(=O)c5ccccc45)ccc3F)CC2)nc(-c2ccnc3[nH]ccc23)n1 [Compound A2, (R)‐2‐fluoro‐N‐(2‐((1‐(6‐(3‐methylmorpholino)‐2‐(1H‐pyrrolo [2,3‐b]pyridin‐4‐yl)pyrimidin‐4‐yl)cyclopropyl)amino)‐2‐oxoethyl)‐5‐((4‐oxo‐3,4‐dihydrophthalazin‐1‐yl)methyl)benzamide]	118 ± 14	12 ± 2.8	28400 ± 1650	> 50000	–
C[C@@H]1COCCN1c1cc(CNC(=O)c2ccc(CN3CCN(C(=O)c4cc(Cc5n[nH]c(=O)c6ccccc56)ccc4F)CC3)cc2)nc(-c2ccnc3[nH]ccc23)n1 [Compound B12, (R)‐4‐((4‐(2‐fluoro‐5‐((4‐oxo‐3,4‐dihydrophthalazin‐1‐yl)methyl)benzoyl)piperazin‐1‐yl)methyl)‐N‐((6‐(3‐methylmorpholino)‐2‐(1H‐pyrrolo[2,3‐b]pyridin‐4‐yl)pyrimidin‐4‐yl)methyl)benzamide]	37 ± 4.2	2 ± 0.3	> 50000	2830 ± 60	–
C[C@@H]1COCCN1c1cc(C2(NC(=O)c3ccc(C(=O)N4CCN(C(=O)c5cc(Cc6n[nH]c(=O)c7ccccc67)ccc5F)CC4)nc3)CC2)nc(-c2ccnc3[nH]ccc23)n1 [Compound A9, (R)‐6‐(4‐(2‐fluoro‐5‐((4‐oxo‐3,4‐dihydrophthalazin‐1‐yl)methyl)benzoyl)piperazine‐1‐carbonyl)‐N‐(1‐(6‐(3‐methylmorpholino)‐2‐(1H‐pyrrolo[2,3‐b]pyridin‐4‐yl)pyrimidin‐4‐yl)cyclopropyl)nicotinamide]	32 ± 9.3	0.6 ± 0.06	> 50000	750 ± 160	–
C[C@@H]1COCCN1c1cc(CNS(=O)(=O)c2ccc(C(=O)N3CCN(C(=O)c4cc(Cc5n[nH]c(=O)c6ccccc56)ccc4F)CC3)cc2)nc(-c2ccnc3[nH]ccc23)n1 [Compound B9, (R)‐4‐(4‐(2‐fluoro‐5‐((4‐oxo‐3,4‐dihydrophthalazin‐1‐yl)methyl)benzoyl)piperazine‐1‐carbonyl)‐N‐((6‐(3‐methylmorpholino)‐2‐(1H‐pyrrolo[2,3‐b]pyridin‐4‐yl)pyrimidin‐4‐yl)methyl) benzenesulfonamide]	205 ± 13.1	0.64 ± 0.21	> 50000	6880 ± 630	–
C[C@@H]1COCCN1c1cc(C2(NC(=O)c3cnc(N4CCN(C(=O)c5cc(Cc6n[nH]c(=O)c7ccccc67)ccc5F)CC4)nc3)CC2)nc(-c2ccnc3[nH]ccc23)n1 [Compound A12, (R)‐2‐(4‐(2‐fluoro‐5‐((4‐oxo‐3,4‐dihydrophthalazin‐1‐yl)methyl)benzoyl)piperazin‐1‐yl)‐N‐(1‐(6‐(3‐methylmorpholino)‐2‐(1H‐pyrrolo[2,3‐b]pyridin‐4‐yl)pyrimidin‐4‐yl)cyclopropyl)pyrimidine‐5‐carboxamide]	105 ± 7.2	1.7 ± 0.2	> 50000	240 ± 10	–
C[C@@H]1COCCN1c1cc(C2(NS(=O)(=O)c3ccc(C(=O)N4CCN(C(=O)c5cc(Cc6n[nH]c(=O)c7ccccc67)ccc5F)CC4)cc3)CC2)nc(-c2ccnc3[nH]ccc23)n1 [Compound A8, (R)‐4‐(4‐(2‐fluoro‐5‐((4‐oxo‐3,4‐dihydrophthalazin‐1‐yl)methyl)benzoyl)piperazine‐1‐carbonyl)‐N‐(1‐(6‐(3‐methylmorpholino)‐2‐(1H‐pyrrolo[2,3‐b]pyridin‐4‐yl)pyrimidin‐4‐yl)cyclopropyl)benzenesulfonamide]	1320 ± 189	0.75 ± 0.27	> 50000	620 ± 60	–
C[C@@H]1COCCN1c1cc(C2(NC(=O)CCNC(=O)c3cc(Cc4n[nH]c(=O)c5ccccc45)ccc3F)CC2)nc(-c2ccnc3[nH]ccc23)n1 [Compound A3, (R)‐2‐fluoro‐N‐(3‐((1‐(6‐(3‐methylmorpholino)‐2‐(1H‐pyrrolo [2,3‐b]pyridin‐4‐yl)pyrimidin‐4‐yl)cyclopropyl)amino)‐3‐oxopropyl)‐5‐((4‐oxo‐3,4‐dihydrophthalazin‐1‐yl)methyl)benzamide]	> 500	–	> 50000	27300 ± 2340	31.8 ± 2.4
